{
  "source": "patent US20200316096A1",
  "about": "“COMBINATION OF DIET AND DRUG THERAPY FOR TREATING CANCER” (Trustees of Boston College, priority 2019, published 2020)",
  "assay": "LC/MS/MS analysis of DON in plasma and VM-M3 brain tumour tissue",
  "format": "in vivo, mouse (VM/Dk)",
  "conditions": "for concentration of DON in VM-M3 tumour tissue, mice fed KD-R versus mice fed SD-UR: 60 min after i.p. DON 1.0 mg/kg",
  "method": "FIGS. 4A and 4B. Restricted Ketogenic diet increases DON delivery to the VM-M3 GBM. The content of DON in the VM-M3 brain tumour tissue was quantified using two LC/MS/MS procedures, as described in Methods. The brain tissue was analyzed for DON content 60 minutes after i.p. DON injection. The values in experiment a are presented as mean of two independent samples, while the values in experiment b are presented as the mean±SEM (n=3). The difference between the two groups in experiment b was significant (P<0.01).\nPlasma and brain tissues were prepared for DON analysis one hour after systemic DON injection, as described in Methods below. […] In another independent experiment, using a similar analytical system, the concentration of DON in the VM-M3 tumour tissue was about 3-fold greater in mice fed the KD-R than in mice fed the SD-UR (FIG. 4B). In both methods of measurement, DON delivery to the brain was greater in the mice fed the KD-R than in the mice fed the SD-UR (FIGS. 4A and 4B). DON was detected in plasma 10 min after i.p. injection (data not shown) and was detected in brain tissue 60 min following injection. These findings indicate that the KD-R facilitated delivery of DON to the VM-M3 tumour tissue.\nTwo independent LC-MS instruments and procedures were used to measure the amount of DON in the blood and in the VM-M3 tumour tissues. This was done to validate the accuracy of the procedures. A Triple quad method (Agilent 6460) was used to analyze DON in the first procedure (FIG. 4A). Mice were injected with 1.0 mg/kg of DON at either 10 min or 60 min before collection of the brains and blood. The brains were immediately flash frozen. Blood samples were collected before removal of the brain. 3N HCl+n-butanol (250 μl) was added to 50 μl of plasma, vortexed and then centrifuged at 16,000×g for 5 min to precipitate proteins. A 200 μl aliquot of the supernatant was transferred to a 1.5 ml tube and incubated at 60° C. for 30 min in a shaking water bath to perform the DON derivatization reaction. For the brain tissue, 5 μl of n-butanol containing 3N HCl was added per milligram tissue. The tissue sample was then homogenized with a glass pestle and was then vortexed and centrifuged, and prepared similarly to the plasma samples. Standard solutions were prepared by serial dilution to generate concentrations from 10 nM to 100 μM. DON was added to untreated mouse plasma or brain tissue to generate an internal standard curve. A high-resolution LC-MS QToF method (Agilent 6550) was used to analyze DON in the second procedure (FIG. 4B). Mice were injected with DON as above. Pre-weighed frozen brain tissue was transferred to a tube containing ceramic beads (Omni tubes). 3M HCl+butanol was added at a concentration of 5 μI/mg of tissue. […]",
  "data": [
    {"smiles": "[N-]=[N+]=CC(=O)CC[C@H](N)C(=O)O", "note": "[DON, 6-diazo-5-oxo-L-norleucine]", "values": [
      {"measurement": "DON in plasma", "setting": "10 min after i.p. injection", "result": "detected"},
      {"measurement": "DON in brain tissue", "setting": "60 min following injection", "result": "detected"},
      {"measurement": "concentration of DON in VM-M3 tumour tissue, mice fed KD-R versus mice fed SD-UR", "setting": "first procedure (FIG. 4A)", "result": "about 2 fold"},
      {"measurement": "concentration of DON in VM-M3 tumour tissue, mice fed KD-R versus mice fed SD-UR", "setting": "independent experiment (FIG. 4B)", "result": "about 3 fold"}
    ]}
  ]
}
